From US12479879B2, “Method for preparing disodium 5′-guanylate heptahydrate crystal” (CJ CHEILJEDANG CORPORATION, priority 2019, dated 2025) come the findings set out here.

In general, solubility (thermodynamic) refers to solubility found after equilibrating the solid with the medium.

This data set in a line: Solubility of 5′-guanylic acid in aqueous sodium chloride solutions (saturated mixed solution, supernatant concentration). To be noted: for Concentration of 5′-Guanylic acid in mixed solution: 25° C.; for 5′-Guanylic acid concentration (g/L) in mixed solution: 40° C.; for solubility thermodynamic: aqueous sodium chloride solution, saline or isotonic.
[1] abbreviates: sodium chloride concentration 300 g/L, supernatant of saturated solution.
[2] abbreviates: sodium chloride concentration 310 g/L, supernatant of saturated solution.
Where [3] appears, read: sodium chloride concentration 350 g/L, supernatant of saturated solution.
Setting [4] is: sodium chloride concentration 360 g/L, supernatant of saturated solution.
Where [5] appears, read: sodium chloride concentration 400 g/L, sodium chloride crystals precipitated.

The structures appear in SMILES notation. In brackets after ≈: the same amount, converted by molar mass.

Protocol: With the aqueous 5′-guanylic acid solution added to different concentrations of aqueous sodium chloride solutions at temperature 40° C. and 25° C., the solubility of 5′-guanylic acid was examined.
Specifically, the aqueous 5′-guanylic acid solution was sufficiently dissolved in each of the aqueous sodium chloride solutions at 40° C. and 25° C., respectively, to prepare saturated solutions. As a result, 160 g/L to 360 g/L saturated solution of sodium chloride were prepared. […] Then, the concentrations (g/L) of 5′-guanylic acid in supernatants obtained by centrifuging each of the saturated solutions, i.e., the mixed solutions were measured.

Turning to `Nc1nc2c(ncn2[C@@H]2O[C@H](COP(=O)(O)O)[C@@H](O)[C@H]2O)c(=O)[nH]1` [5′-Guanylic acid, 5′-guanylic acid], the “Concentration of 5′-Guanylic acid in mixed solution” value came to 18100 µg/mL under setting [1]; 18200 µg/mL under setting [2]; 18200 µg/mL under setting [3]; 18200 µg/mL under setting [4]; 18300 µg/mL under setting [5]. The “5′-Guanylic acid concentration (g/L) in mixed solution” value (shortened to “5′-Guanylic acid concentration (g/L)”) under setting [1] stood at 49.9 g/L; the “5′-Guanylic acid concentration (g/L)” value under setting [2] was 49.5 g/L; the “5′-Guanylic acid concentration (g/L)” value under setting [3] came to 48.9 g/L; the “5′-Guanylic acid concentration (g/L)” value under setting [4] is 49.8 g/L; the “5′-Guanylic acid concentration (g/L)” value under setting [5] was 49.6 g/L. The solubility (thermodynamic) turned out to be 40.1 mg/mL (≈ 110 mM) (25 °C, Concentration of 5′-Guanylic acid in mixed solution (g/L), sodium chloride concentration 160 g/L, supernatant of saturated solution); 26.4 mg/mL (≈ 72.7 mM) (25 °C, Concentration of 5′-Guanylic acid in mixed solution (g/L), sodium chloride concentration 200 g/L, supernatant of saturated solution); 22.2 mg/mL (≈ 61.1 mM) (25 °C, Concentration of 5′-Guanylic acid in mixed solution (g/L), sodium chloride concentration 230 g/L, supernatant of saturated solution); 19.2 mg/mL (≈ 52.9 mM) (25 °C, Concentration of 5′-Guanylic acid in mixed solution (g/L), sodium chloride concentration 280 g/L, supernatant of saturated solution); 18.2 mg/mL (≈ 50.1 mM) (25 °C, Concentration of 5′-Guanylic acid in mixed solution (g/L), sodium chloride concentration 420 g/L, sodium chloride crystals precipitated); 86.5 mg/mL (≈ 238 mM) (40 °C, 5′-Guanylic acid concentration (g/L) in mixed solution, sodium chloride concentration 160 g/L, supernatant of saturated solution). The thermodynamic solubility reads like this: (40 °C, 5′-Guanylic acid concentration (g/L) in mixed solution, sodium chloride concentration 200 g/L, supernatant of saturated solution) 62.7 mg/mL (≈ 173 mM); (40 °C, 5′-Guanylic acid concentration (g/L) in mixed solution, sodium chloride concentration 230 g/L, supernatant of saturated solution) 57.1 mg/mL (≈ 157 mM); (40 °C, 5′-Guanylic acid concentration (g/L) in mixed solution, sodium chloride concentration 280 g/L, supernatant of saturated solution) 50.1 mg/mL (≈ 138 mM); (40 °C, 5′-Guanylic acid concentration (g/L) in mixed solution, sodium chloride concentration higher than 400 g/L, sodium chloride crystals precipitated) 48.7 mg/mL (≈ 134 mM).
